Measurements reported in the supplement of paper PMC6045584.

What was measured:
Assay in all cases: area under dose-response curve of surviving fraction (unscaled, Aref=0) (surviving fraction x log10(nM)); higher = more resistant
Settings in all cases: exposure time: 5 days; dose range 0.5-1000 nM
VORINOSTAT = compound: O=C(CCCCCCC(=O)Nc1ccccc1)NO [VORINOSTAT]
In short: (§1)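 Surviving fractions were fitted by 3-parameter logistic regression in the drc R package to give dose-response survival curves. They came from tumour cell lines treated for five days with eight inhibitor concentrations from 0.5 to 1000 nM and read by CellTiter-Glo luminescence against DMSO-only wells. The area under the curve is the unscaled activity area. It was calculated over log10 dose with Aref = 0.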

IMATINIB = compound: Cc1ccc(NC(=O)c2ccc(CN3CCN(C)CC3)cc2)cc1Nc1nccc(-c2cccnc2)n1 [IMATINIB]
In short: as §1

MK-1775 = compound: C=CCn1c(=O)c2cnc(Nc3ccc(N4CCN(C)CC4)cc3)nc2n1-c1cccc(C(C)(C)O)n1 [MK-1775]
In short: as §1

CABOZANTINIB = compound: COc1cc2nccc(Oc3ccc(NC(=O)C4(C(=O)Nc5ccc(F)cc5)CC4)cc3)c2cc1OC [CABOZANTINIB]
In short: as §1

BLEOMYCIN = compound: Cc1c(N)nc([C@H](CC(N)=O)NC[C@H](N)C(N)=O)nc1C(=O)N[C@H](C(=O)N[C@H](C)[C@@H](O)[C@H](C)C(=O)N[C@H](C(=O)NCCc1nc(-c2nc(C(=O)NCCC[S+](C)C)cs2)cs1)[C@@H](C)O)[C@@H](OC1OC(CO)C(O)C(O)C1OC1OC(CO)C(O)C(OC(N)=O)C1O)c1cnc[nH]1 [BLEOMYCIN]
In short: as §1

BEZ-235 = compound: Cn1c(=O)n(-c2ccc(C(C)(C)C#N)cc2)c2c3cc(-c4cnc5ccccc5c4)ccc3ncc21 [BEZ-235]
In short: as §1

[1] = compound: COc1ccc(-c2cc3c(C)nc(N)nc3n([C@H]3CC[C@H](OCCO)CC3)c2=O)cn1
In short: as §1

NILOTINIB = compound: Cc1cn(-c2cc(NC(=O)c3ccc(C)c(Nc4nccc(-c5cccnc5)n4)c3)cc(C(F)(F)F)c2)cn1 [NILOTINIB]
In short: as §1

AFIMOXIFENE = compound: CC/C(=C(\c1ccc(O)cc1)c1ccc(OCCN(C)C)cc1)c1ccccc1 [AFIMOXIFENE]
In short: as §1

[2] = compound: CCc1cc(Nc2nccc(-c3c(-c4ccc(OC)c(C(=O)Nc5c(F)cccc5F)c4)nc4ccccn34)n2)c(OC)cc1N1CCC(N2CCN(S(C)(=O)=O)CC2)CC1
In short: as §1

[3] = compound: C[C@H](CN(C)C)Oc1nc(Nc2cc3cccc(Cl)c3cn2)cnc1C#N
In short: as §1

BMN-673 = compound: Cn1ncnc1[C@H]1c2n[nH]c(=O)c3cc(F)cc(c23)N[C@@H]1c1ccc(F)cc1 [BMN-673]
In short: as §1

HS57T LUNG
area under dose-response curve (VORINOSTAT): 3.16
area under dose-response curve (IMATINIB): 3.57
area under dose-response curve (MK-1775): 2.19
area under dose-response curve (CABOZANTINIB): 3.09
area under dose-response curve (BLEOMYCIN): 2.57
area under dose-response curve (BEZ-235): 1.94
area under dose-response curve [1]: 2.21
area under dose-response curve (NILOTINIB): 3.38
area under dose-response curve (AFIMOXIFENE): 3.68
area under dose-response curve [2]: 3.36
area under dose-response curve [3]: 2.65
area under dose-response curve (BMN-673): 2.92
